Legend:
[1] = target: T1, human recombinant dopamine D2L receptor (Homo sapiens, UniProt P14416); experiment: Dopamine D2L radioligand binding ([3H]Spiperone); settings: compound at 1 μM; read-out: Percentage inhibition of ligand binding, Dopamine (1 μM) D2L
T1 construct: expressed in transfected cells; host or cells: CHO
Procedure: To evaluate in radioligand binding assays the activity of compounds of the invention, human recombinant dopamine D2L receptor expressed in Chinese hamster ovary (CHO) cells (Grandy, D. et al, Proc. Natl. Acad. Sci. USA. 86:9762, 1989; Hayes, G. et al, Mol. Endocrinol. 6:920, 1992) in a modified Tris-HCl buffer (50 mM Tris-HCl, pH 7.4, 1.4 mM Ascorbic Acid, 0.001% BSA, 150 mM NaCl) was used. Compounds of the invention were incubated with 0.16 nM [^3H]Spiperonefor 120 min at 25° C. Non-specific binding was estimated in the presence of 10 μM Haloperidol. Receptor proteins were filtered and washed, the filters were then counted to determine [^3H]Spiperone specifically bound. Compounds were screened at 1 μM or lower, using 1% DMSO as vehicle. Biochemical assay results are presented as the percent inhibition of specific binding in Table 3.

[2] = target: T2, human recombinant serotonin (5-Hydroxytryptamine) 5-HT2A receptor (Homo sapiens, UniProt P28223); experiment: Serotonin 5-HT2A radioligand binding ([3H]Ketanserin); settings: compound at 0.1 μM; read-out: Percentage inhibition of ligand binding, Serotonin (0.1 μM) 5-HT2A
T2 construct: expressed in transfected cells; host or cells: CHO-K1
Procedure: To evaluate in radioligand binding assays the activity of compounds of the invention, human recombinant serotonin (5-Hydroxytryptamine) 5-HT2A receptor expressed in Chinese hamster ovary (CHO) K1 cells (Bonhaus, D. et al, Br. J. Pharmacol. 115:622, 1995; Saucier, C. et al, J. Neurochem. 68:1998, 1997) in a 50 mM Tris-HCl buffer, pH 7.4, was used. Compounds of the invention were incubated with 0.5 nM [^3H]Ketanserin for 60 min at 25° C. Non-specific binding was estimated in the presence of 1 μM Mianserin. Receptor proteins were filtered and washed, the filters were then counted to determine [^3H]Ketanserin specifically bound. Compounds were screened at 1 μM or lower, using 1% DMSO as vehicle. Biochemical assay results are presented as the percent inhibition of specific binding in Table 4.

[3] = target: T3, human recombinant serotonin (5-Hydroxytryptamine) 5-HT2C receptor (Homo sapiens, UniProt P28335); experiment: Serotonin 5-HT2C radioligand binding ([3H]Mesulergine); settings: compound at 0.1 μM; read-out: Percentage inhibition of ligand binding, Serotonin (0.1 μM) 5-HT2C
T3 construct: expressed in transfected cells; host or cells: CHO-K1
T3 sequence (P28335 33-458): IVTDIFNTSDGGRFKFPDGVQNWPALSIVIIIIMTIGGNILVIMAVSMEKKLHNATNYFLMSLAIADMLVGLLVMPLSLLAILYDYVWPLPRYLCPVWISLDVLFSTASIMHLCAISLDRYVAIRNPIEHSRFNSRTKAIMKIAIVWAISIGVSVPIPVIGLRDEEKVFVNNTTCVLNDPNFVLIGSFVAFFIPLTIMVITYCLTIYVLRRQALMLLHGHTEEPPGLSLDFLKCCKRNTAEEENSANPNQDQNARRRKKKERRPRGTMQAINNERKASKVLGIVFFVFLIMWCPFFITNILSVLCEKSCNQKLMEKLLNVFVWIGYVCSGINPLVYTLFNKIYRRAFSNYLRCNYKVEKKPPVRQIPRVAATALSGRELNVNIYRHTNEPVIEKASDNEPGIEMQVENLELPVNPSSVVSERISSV
Procedure: To evaluate in radioligand binding assays the activity of compounds of the invention, human recombinant serotonin (5-Hydroxytryptamine) 5-HT2C receptor expressed in Chinese hamster ovary (CHO) K1 cells (Wolf, W. et al, J. Neurochem. 69:1449, 1997) in a modified Tris-HCl buffer (50 mM Tris-HCl, pH 7.4, 0.1% Ascorbic Acid, 10 μM Pargyline) was used. Compounds of the invention were incubated with 1 nM [^3H]Mesulergine for 60 min at 25° C. Non-specific binding was estimated in the presence of 1 μM Mianserin. Receptor proteins were filtered and washed, the filters were then counted to determine [^3H]Mesulergine specifically bound. Compounds were screened at 1 μM or lower, using 1% DMSO as vehicle. Biochemical assay results are presented as the percent inhibition of specific binding in Table 4.

[4] = target: T4, human recombinant serotonin (5-Hydroxytryptamine) 5-HT5A receptor (Homo sapiens, UniProt P47898); experiment: Serotonin 5-HT5A radioligand binding ([3H]LSD); settings: compound at 0.1 μM; read-out: Percentage inhibition of ligand binding, Serotonin (0.1 μM) 5-HT5A
T4 construct: expressed in transfected cells; host or cells: CHO-K1
Procedure: To evaluate in radioligand binding assays the activity of compounds of the invention, human recombinant serotonin (5-Hydroxytryptamine) 5-HT5A receptor expressed in Chinese hamster ovary (CHO) K1 cells (Rees, S. et al, FEBS Lett. 355:242, 1994) in a modified Tris-HCl buffer (50 mM Tris-HCl, pH 7.4, 10 mM MgCl2, 0.5 mM EDTA) was used. Compounds of the invention were incubated with 1.7 nM [^3H]Lysergic acid diethylamide (LSD) for 60 min at 37° C. Non-specific binding was estimated in the presence of 100 μM Serotonin (5-HT). Receptor proteins were filtered and washed, the filters were counted to determine [^3H]LSD specifically bound. Compounds were screened at 1 μM or lower, using 1% DMSO as vehicle. Biochemical assay results are presented as the percent inhibition of specific binding in Table 4.

[5] = target: T5, human recombinant serotonin (5-Hydroxytryptamine) 5-HT6 receptor (Homo sapiens, UniProt P50406); experiment: Serotonin 5-HT6 radioligand binding ([3H]LSD); settings: compound at 0.1 μM; read-out: Percentage inhibition of ligand binding, Serotonin (0.1 μM) 5-HT6
T5 construct: expressed in transfected cells; host or cells: HeLa
Procedure: To evaluate in radioligand binding assays the activity of compounds of the invention, human recombinant serotonin (5-Hydroxytryptamine) 5-HT6 receptor expressed in human HeLa cells (Monsma, F. Jr. et al, Mol. Pharmacol. 43:320, 1993) in a modified Tris-HCl buffer (50 mM Tris-HCl, pH 7.4, 150 mM NaCl, 2 mM Ascorbic Acid, 0.001% BSA) was used. Compounds of the invention were incubated with 1.5 nM [3H]Lysergic acid diethylamide (LSD) for 120 min at 37° C. Non-specific binding was estimated in the presence of 5 μM Serotonin (5-HT). Receptor proteins were filtered and washed, the filters were then counted to determine [3H]LSD specifically bound. Compounds were screened at 1 μM or lower, using 1% DMSO as vehicle. Biochemical assay results are presented as the percent inhibition of specific binding in Table 4.

T1 sequence (P14416 whole entry): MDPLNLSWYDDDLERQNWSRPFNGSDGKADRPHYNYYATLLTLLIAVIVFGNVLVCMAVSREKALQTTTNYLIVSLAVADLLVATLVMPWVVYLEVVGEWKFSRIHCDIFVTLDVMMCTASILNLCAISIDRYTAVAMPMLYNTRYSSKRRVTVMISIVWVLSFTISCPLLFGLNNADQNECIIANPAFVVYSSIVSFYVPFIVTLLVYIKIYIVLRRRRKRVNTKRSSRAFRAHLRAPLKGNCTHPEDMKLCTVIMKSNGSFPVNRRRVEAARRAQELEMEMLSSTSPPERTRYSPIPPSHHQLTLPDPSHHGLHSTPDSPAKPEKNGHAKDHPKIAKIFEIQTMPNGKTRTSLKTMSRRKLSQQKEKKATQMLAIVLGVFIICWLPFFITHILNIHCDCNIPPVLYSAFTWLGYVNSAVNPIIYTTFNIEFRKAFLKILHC
T4 sequence (P47898 whole entry): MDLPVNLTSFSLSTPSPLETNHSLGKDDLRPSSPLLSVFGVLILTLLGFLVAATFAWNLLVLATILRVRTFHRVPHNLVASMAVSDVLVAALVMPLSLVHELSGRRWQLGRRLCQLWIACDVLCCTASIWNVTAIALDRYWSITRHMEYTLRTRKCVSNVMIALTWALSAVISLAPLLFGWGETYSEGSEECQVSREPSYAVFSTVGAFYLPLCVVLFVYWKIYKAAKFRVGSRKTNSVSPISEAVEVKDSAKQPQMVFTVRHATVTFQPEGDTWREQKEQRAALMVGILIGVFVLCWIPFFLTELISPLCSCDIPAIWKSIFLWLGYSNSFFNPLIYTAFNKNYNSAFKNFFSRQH
T5 sequence (P50406 whole entry): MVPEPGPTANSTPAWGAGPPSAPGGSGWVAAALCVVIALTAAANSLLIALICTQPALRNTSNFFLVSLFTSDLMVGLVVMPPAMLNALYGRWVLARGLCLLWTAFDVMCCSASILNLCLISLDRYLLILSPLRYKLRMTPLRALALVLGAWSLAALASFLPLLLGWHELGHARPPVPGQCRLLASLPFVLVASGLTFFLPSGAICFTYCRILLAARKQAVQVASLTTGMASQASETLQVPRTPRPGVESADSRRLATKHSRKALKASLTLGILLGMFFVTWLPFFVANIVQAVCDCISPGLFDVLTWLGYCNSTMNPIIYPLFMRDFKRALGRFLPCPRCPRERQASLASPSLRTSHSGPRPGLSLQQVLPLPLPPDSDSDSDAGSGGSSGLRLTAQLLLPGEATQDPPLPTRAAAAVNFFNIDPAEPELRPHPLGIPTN
T2 sequence (P28223 whole entry): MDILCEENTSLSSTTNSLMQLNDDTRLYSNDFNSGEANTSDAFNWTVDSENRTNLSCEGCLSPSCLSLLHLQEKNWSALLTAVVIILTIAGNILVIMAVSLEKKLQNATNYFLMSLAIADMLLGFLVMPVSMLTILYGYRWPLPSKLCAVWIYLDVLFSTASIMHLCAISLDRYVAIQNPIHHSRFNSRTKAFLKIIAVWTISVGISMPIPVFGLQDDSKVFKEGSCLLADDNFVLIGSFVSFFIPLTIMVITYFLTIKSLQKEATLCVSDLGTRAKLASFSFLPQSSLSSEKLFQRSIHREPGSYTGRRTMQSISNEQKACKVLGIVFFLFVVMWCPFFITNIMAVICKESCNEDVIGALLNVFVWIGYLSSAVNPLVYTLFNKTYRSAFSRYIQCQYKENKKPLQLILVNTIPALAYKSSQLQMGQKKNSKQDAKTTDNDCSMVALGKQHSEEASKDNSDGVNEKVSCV

SMILES | inhibition at 1 µM [1] | inhibition at 0.1 µM [2] | inhibition at 0.1 µM [3] | inhibition at 0.1 µM [4] | inhibition at 0.1 µM [5]
Cc1cc(/C=C/c2ccc(C)nc2)c2c(c1)c1c(n2C)CCN(C)C1 [Compound 14] | 14% | -7% | 1% | -7% | 10%
Cc1cc(CCc2ccc(C)nc2)c2c(c1)c1c(n2C)CCN(C)C1 [Compound 13] | 15% | 13% | -11% | 15% | 2%
Cc1cc(-c2ccc(F)cc2)c2c(c1)c1c(n2C)CCN(C)C1 [Compound 7] | 5% | 6% | 36% | -4% | 10%
Cc1cc(C#Cc2cccs2)c2[nH]c3c(c2c1)CN(C)CC3 [Compound 8] | -1% | 27% | 4% | -14% | 15%
Cc1cc(-c2ccncc2)c2c(c1)c1c(n2C)CCN(C)C1 [Compound 9] | 7% | 5% | 9% | 6% | -2%
C/C(=C\c1cc(C)cc2c3c(n(C)c12)CCN(C)C3)c1ccc(C)nc1 [Compound 15] | 3% | 1% | 28% | 11% | 11%
Cc1ccc(C#Cc2cc(Cl)cc3c4c(n(C)c23)CCN(C)C4)cn1 [Compound 18] | 7% | 80% | 27% | 17% | 6%
C/C(=C\c1cc(C)cc2c3c(n(C)c12)CCN(C)C3)c1ccncc1 [Compound 11] | 28% | 13% | -11% | -19% | -6%
C#Cc1cc(C)cc2c3c(n(C)c12)CCN(C)C3 [Compound 10, 6-Ethynyl-2,3,4,5-tetrahydro-2,5,8-trimethyl-1H-pyrido[4,3-b]indole] | 70% | 37% | 55% | 1% | 18%
Cc1cc(C#Cc2ccc(C)nc2)c2c(c1)c1c(n2C)CCN(C)C1 [Compound 12, 2,3,4,5-tetrahydro-2,5,8-trimethyl-6-(2-(6-methylpyridin-3-yl)ethynyl)-1H-pyrido[4,3-b]indole] | 14% | 23% | 3% | -21% | -3%
Cc1cc(C#Cc2ccncc2)c2c(c1)c1c(n2C)CCN(C)C1 [Compound 17] | 1% | 24% | 19% | 15% | 5%
Cc1cc(C#Cc2nccs2)c2[nH]c3c(c2c1)CN(C)CC3 [Compound 16] | -1% | 21% | 20% | -2% | 14%
